Measurements from patent publication US6689767B2, “Triterpenes having antibacterial activity” (Regents of the University of Minnesota, priority 2000, dated 2004).

Experiments:
[1] = system: Staphylococcus epidemidis; assay: Kirby-Bauer disk diffusion of lupeol derivatives, Staphylococcus epidermidis; type: cell-based
Procedure: (§1) Derivatives of lupeol were tested for inhibition of bacterial growth using the Kirby-Bauer disk diffusion method and by growth in liquid culture. For the disk diffusion method, compounds were dissolved in DMSO and 100 μl was added to the 10 mm filter paper disk. The amount of compound applied to the disk varied. The amount applied for each compound was as follows: lupeol (50 μg), lupeol-3-maleate (15 μg), lupeol-3-thiodiglycolate (15 μg), lupeol-3-dimethyl succinate (60 μg), lupeol-3-phosphate (30 μg), lupenone (50 μg), lupenon-3-oxime (50 μg), lupeol-3-amine (50 μg), lupenon-1,2-ene-2-ol (50 μg). In liquid culture, the compounds were dissolved in DMSO at 1 mg/ml and then 100 μl was added to 7 ml of sterile broth, along with a 1/200 dilution of freshly grown bacterial liquid culture.

[2] = system: Staphylococcus aureus; assay: Kirby-Bauer disk diffusion growth inhibition, Staphylococcus aureus; type: cell-based; conditions: for Zone of inhibition (mm) against S. aureus: Example 35; for Zone of inhibition Staphylococcus aureus: 100 μl on 10 mm disk, 18 hours 37° C.; for Active against: Table 1 summary, S. aureus
Procedure: (§2) The compounds disclosed herein were tested for growth inhibition against four strains of bacteria: Escherichia coli, Staphylococcus aureus, methicillin-resistant Staphylococcus aureus, and Bacillus subtilis. […] They represent […]. E. coli is a gram-negative, non-spore forming, rod-shaped, opportunistic pathogen that resides in the human digestive tract. S. aureus is a gram positive coccus, is usually found morphologically as a […], and is an opportunistic human pathogen, often residing on or in the skin. B. subtilis is a gram positive spore-forming rod. Its native environment is the soil. The chemicals were tested for growth-inhibition of the bacteria by the Kirby-Bauer method. See, e.g., Microbiology, third edition; Lansing M. Prescott, John P. Harley, and Donald A. Klein; Wm. C. Brown Publishers.
(§3) Mueller-Hinton agar (Difco Lab, Michigan) was prepared according to the manufacturer's directions, and 20 ml was dispensed in each sterile petri dish. Sterile nutrient broth (Difco Lab, Michigan) was also prepared according to the manufacturer's directions.
(§4) Bacteria were grown in liquid nutrient broth for 18 hours at 37° C. until they were turbid.
(§5) An aliquot of 0.5 ml of cultured bacteria was aseptically transferred to the surface of a Mueller-Hinton agar plat, and spread using a cotton-tipped swab. Plates were then allowed to dry for 5 minutes. Then a 10 mm diameter filter paper disk impregnated with the test chemical was placed with sterile forceps on the plate. The disks were impregnated with 100 μl of a solution of the test compound in DMSO or in water, at the indicated concentrations in Table 1.
(§6) The zones of inhibition were measured after 18 hours growth at 37° C. Tests were done in triplicate.
(§7) Additional compounds were tested for activity against E. coli, laboratory strain S. aureus (not methicillin resistant), and B. subtilis. The compounds were tested by the disk diffusion method, as in Example 1, with application of a 10 mg/mil solution of the test compound in DMSO.
as §1

[3] = system: Enterococcus faecalis; assay: Kirby-Bauer disk diffusion of lupeol derivatives, Enterococcus faecalis; type: cell-based
Procedure: as §1

[4] = system: Bacillus subtilis; assay: Kirby-Bauer disk diffusion growth inhibition, Bacillus subtilis; type: cell-based; conditions: for Zone of inhibition Bacillus subtilis: 100 μl on 10 mm disk, 18 hours 37° C.
Procedure: as §2, §3, §4, §5, §6, §7

[5] = system: bacteria; assay: Summary statements over the antibacterial assays above; type: cell-based; conditions: summary list
[6] = system: Escherichia coli; assay: Kirby-Bauer disk diffusion growth inhibition, Escherichia coli; type: cell-based; conditions: for Zone of inhibition Escherichia coli: 100 μl on 10 mm disk, 18 hours 37° C.; for sensitivity of E. coli: Example 34, 10 mg/ml in DMSO; for Active against: Table 1 summary, E. coli
Procedure: as §2, §3, §4, §5, §6, §7

[7] = system: Staphylococcus epidermis; assay: Growth in liquid culture, optical density, S. epidermidis; type: cell-based, Staphylococcus epidermidis; conditions: 600 nm, 24 hours growth, test compound at 14 μg per ml; None = 0.07
Procedure: as §1

[8] = system: Staphylococcus aureus; assay: Growth in liquid culture, optical density, S. aureus; type: cell-based; conditions: 600 nm, 24 hours growth, test compound at 14 μg per ml; None = 0.08
Procedure: as §1

[9] = system: Enterococcus faecilis; assay: Growth in liquid culture, optical density, E. faecalis; type: cell-based, Enterococcus faecalis; conditions: 600 nm, 24 hours growth, test compound at 14 μg per ml; None = 0.85
Procedure: as §1

[10] = reference antibiotic, amount on disk not stated
[11] = 50 μg applied to 10 mm disk in DMSO

CC1(C)S[C@@H]2[C@H](NC(=O)[C@H](N)c3ccccc3)C(=O)N2[C@H]1C(=O)O [Ampicillin, reference compound]
Zone of inhibition (mm) against S. epiderm. [1, 10]: 2 mm | Zone of inhibition (mm) against S. aureus [2, 10]: 6.1 mm | Zone of inhibition (mm) against E. faecalis [3, 10]: 5.75 mm

C=C(C)[C@@H]1CC[C@]2(COC(=O)CN)CC[C@]3(C)[C@H](CC[C@@H]4[C@@]5(C)CC[C@H](OC(=O)CN)C(C)(C)[C@@H]5CC[C@]43C)[C@@H]12 [Betulin 3,28-diglycine, Betulin-3,28-diglycine]
Zone of inhibition Bacillus subtilis ([4]; 125 ng/ml in water): 0 mm | active against at least one strain of bacteria in the assays above [5]: active against at least one strain of bacteria | Zone of inhibition Staphylococcus aureus ([2]; 125 ng/ml in water): 0 mm | Zone of inhibition Escherichia coli ([6]; 125 ng/ml in water): 0 mm | sensitivity of E. coli [6]: sensitive | Active against [6]: E. coli

C=C(C)C1CCC2(COC(=O)CCC(=O)O)CC[C@@]3(C)C(CCC4[C@@]5(C)CCC(OC(=O)CCC(=O)O)C(C)(C)C5CC[C@]43C)C12 (some centres unmarked) [Betulin 3,28-disuccinate, Betulin-3,28-disuccinate]
Zone of inhibition Bacillus subtilis ([4]; 1 mg/ml in DMSO): 0 mm | active against at least one strain of bacteria in the assays above [5]: active against at least one strain of bacteria | Zone of inhibition Staphylococcus aureus ([2]; 1 mg/ml in DMSO): 0 mm | Zone of inhibition Escherichia coli ([6]; 1 mg/ml in DMSO): 0 mm

C=C(C)[C@@H]1CC[C@]2(COC(=O)[C@@H](N)C(C)C)CC[C@]3(C)[C@H](CC[C@@H]4[C@@]5(C)CC[C@H](OC(=O)[C@@H](N)C(C)C)C(C)(C)[C@@H]5CC[C@]43C)[C@@H]12 [Betulin-3,28-Di-L-valine ester, Betulin-3,28-di-L-valine]
active against at least one strain of bacteria in the assays above [5]: active against at least one strain of bacteria | sensitivity of S. aureus ([2]; Example 34, 10 mg/ml in DMSO): sensitive | Active against [2]: S. aureus

C=C(C)[C@@H]1CC[C@]2(CO)CC[C@]3(C)[C@H](CC[C@@H]4[C@@]5(C)CC[C@H](OC(=O)/C=C/c6ccc(O)c(O)c6)C(C)(C)[C@@H]5CC[C@]43C)[C@@H]12 [Betulin-3-caffeate]
active against at least one strain of bacteria in the assays above [5]: active against at least one strain of bacteria | sensitivity of E. coli [6]: sensitive | Active against [6]: E. coli

C=C(C)C1CCC2(COC(=O)COCC(=O)O)CCC3(C)C(CCC4C5(C)CCC(O)C(C)(C)C5CCC43C)C12 (centres unmarked) [Betulin-28-diglycolate]
active against at least one strain of bacteria in the assays above [5]: active against at least one strain of bacteria | sensitivity of E. coli [6]: sensitive | Active against [6]: E. coli

O=C(N[C@H](CO)[C@H](O)c1ccc([N+](=O)[O-])cc1)C(Cl)Cl [Chloramphenicol, reference compound]
Zone of inhibition (mm) against S. epiderm. [1, 10]: 0.5 mm | Zone of inhibition (mm) against S. aureus [2, 10]: 2.6 mm | Zone of inhibition (mm) against E. faecalis [3, 10]: 1.25 mm

C=C(C)[C@@H]1CC[C@]2(C)CC[C@]3(C)[C@H](CC[C@@H]4[C@@]5(C)CCC(=NO)C(C)(C)[C@@H]5CC[C@]43C)[C@@H]12 [Lupenon oxime, Lupenon-3-oxime]
Zone of inhibition (mm) against S. epiderm. [1, 11]: 0 mm | active against at least one strain of bacteria in the assays above [5]: active against at least one strain of bacteria | Zone of inhibition (mm) against S. aureus [2, 11]: 0.4 mm | Active against [2]: S. aureus, | Optical Density of S. epiderm [7]: 0.06 | Optical Density of S. aureus [8]: 0.06 | Zone of inhibition (mm) against E. faecalis [3, 11]: 0.6 mm | Active against ([3]; Table 1 summary, E. faecalis): E. faecalis | Optical Density of E. faecalis [9]: 0.45

[H]/N=C(/N)N[C@H]1[C@H](O)[C@@H](O)[C@H](O[C@@H]2O[C@@H](C)[C@](O)(C=O)[C@H]2O[C@@H]2O[C@@H](CO)[C@H](O)[C@@H](O)[C@@H]2NC)[C@@H](N/C(N)=N\[H])[C@@H]1O [Streptomycin, reference compound]
Zone of inhibition (mm) against S. epiderm. [1, 10]: 0 mm | zone of inhibition at 10 µg/disc ([4]; Bacillus subtilis, control antibiotic, 10 mcg): 24 mm | Zone of inhibition (mm) against S. aureus [2, 10]: 1.25 mm | zone of inhibition at 10 µg/disc ([2]; Staphylococcus aureus, control antibiotic, 10 mcg): 15 mm | amount applied to the disk required for inhibition of S. aureus ([2]; disk diffusion assay, laboratory strain (not methicillin resistant)): 10 µg | zone of inhibition at 10 µg/disc ([6]; Escherichia coli, control antibiotic, 10 mcg): 20 mm | Zone of inhibition (mm) against E. faecalis [3, 10]: 0 mm

Allobetulin 2-valine-ester
Zone of inhibition Bacillus subtilis ([4]; 125 ng/ml in water): 0 mm | Zone of inhibition Staphylococcus aureus ([2]; 125 ng/ml in water): 0 mm | Zone of inhibition Escherichia coli ([6]; 125 ng/ml in water): 0 mm

Allobetulin ethanol amine
Zone of inhibition Bacillus subtilis ([4]; 125 ng/ml in water): 0 mm | Zone of inhibition Staphylococcus aureus ([2]; 125 ng/ml in water): 0 mm | Zone of inhibition Escherichia coli ([6]; 125 ng/ml in water): 0 mm

Allobetulin glycine
Zone of inhibition Bacillus subtilis ([4]; 125 ng/ml in water): 0 mm | Zone of inhibition Staphylococcus aureus ([2]; 125 ng/ml in water): 0 mm | Zone of inhibition Escherichia coli ([6]; 125 ng/ml in water): 0 mm

Allobetulin-3-phthalate [Allobetulin 3-phthalate]
Zone of inhibition Bacillus subtilis ([4]; 125 ng/ml in water): 0 mm | Zone of inhibition Staphylococcus aureus ([2]; 125 ng/ml in water): 0 mm | Zone of inhibition Escherichia coli ([6]; 125 ng/ml in water): 0 mm

Allobetulin-3-poly (ethylene glycol) bis (carboxymethyl) ether ester
Zone of inhibition Bacillus subtilis ([4]; 125 ng/ml in water): 0 mm | Zone of inhibition Staphylococcus aureus ([2]; 125 ng/ml in water): 0 mm | Zone of inhibition Escherichia coli ([6]; 125 ng/ml in water): 0 mm

Betulin 3,28-maleate
Zone of inhibition Bacillus subtilis ([4]; 20 mg/ml in DMSO): 0 mm | Zone of inhibition Staphylococcus aureus ([2]; 20 mg/ml in DMSO): 0 mm | Zone of inhibition Escherichia coli ([6]; 20 mg/ml in DMSO): 0 mm

Betulin dianiline ester
Zone of inhibition Bacillus subtilis ([4]; 125 ng/ml in water): 0 mm | Zone of inhibition Staphylococcus aureus ([2]; 125 ng/ml in water): 0 mm | Zone of inhibition Escherichia coli ([6]; 125 ng/ml in water): 0 mm

Betulin diglycolate
Zone of inhibition Bacillus subtilis ([4]; 125 ng/ml in water): 0 mm | Zone of inhibition Staphylococcus aureus ([2]; 125 ng/ml in water): 0 mm | Zone of inhibition Escherichia coli ([6]; 125 ng/ml in water): 10.0 mm

Gentamicin [reference compound]
Zone of inhibition (mm) against S. epiderm. [1, 10]: 0 mm | Zone of inhibition (mm) against S. aureus [2, 10]: 0.1 mm | Zone of inhibition (mm) against E. faecalis [3, 10]: 0 mm

Hederine hydrate
Zone of inhibition Bacillus subtilis ([4]; 0.5 ng/ml in water): 0 mm | Zone of inhibition Staphylococcus aureus ([2]; 0.5 ng/ml in water): 0 mm | Zone of inhibition Escherichia coli ([6]; 0.5 ng/ml in water): 0 mm

Poly (ethylene glycol) bis (carboxymethyl) ester
Zone of inhibition Bacillus subtilis ([4]; 125 ng/ml in water): 0 mm | Zone of inhibition Staphylococcus aureus ([2]; 125 ng/ml in water): 0 mm | Zone of inhibition Escherichia coli ([6]; 125 ng/ml in water): 0 mm
